Results published in ChEMBL document CHEMBL5046316, “Structure-Based Optimization of a Fragment-like TLR8 Binding Screening Hit to an In Vivo Efficacious TLR7/8 Antagonist” (ACS Med Chem Lett, 2022).
pIC50: −log10 of the molar value.

Assays:
[1] = target: Voltage-gated inwardly rectifying potassium channel KCNH2 (Homo sapiens, UniProt Q12809); assay: Inhibition of human ERG; type: toxicity
Toll-like receptor 4 [2] = target: T1, Toll-like receptor 4 (Homo sapiens, UniProt O00206); assay: Antagonist activity at human TLR4 expressed in human whole blood assessed as inhibition of LPS stimulated TNF level preincubated for 30 mins followed by stimulation and measured after 20 hrs by multiplate reader assay; type: tissue-based
T1 sequence (O00206 whole entry): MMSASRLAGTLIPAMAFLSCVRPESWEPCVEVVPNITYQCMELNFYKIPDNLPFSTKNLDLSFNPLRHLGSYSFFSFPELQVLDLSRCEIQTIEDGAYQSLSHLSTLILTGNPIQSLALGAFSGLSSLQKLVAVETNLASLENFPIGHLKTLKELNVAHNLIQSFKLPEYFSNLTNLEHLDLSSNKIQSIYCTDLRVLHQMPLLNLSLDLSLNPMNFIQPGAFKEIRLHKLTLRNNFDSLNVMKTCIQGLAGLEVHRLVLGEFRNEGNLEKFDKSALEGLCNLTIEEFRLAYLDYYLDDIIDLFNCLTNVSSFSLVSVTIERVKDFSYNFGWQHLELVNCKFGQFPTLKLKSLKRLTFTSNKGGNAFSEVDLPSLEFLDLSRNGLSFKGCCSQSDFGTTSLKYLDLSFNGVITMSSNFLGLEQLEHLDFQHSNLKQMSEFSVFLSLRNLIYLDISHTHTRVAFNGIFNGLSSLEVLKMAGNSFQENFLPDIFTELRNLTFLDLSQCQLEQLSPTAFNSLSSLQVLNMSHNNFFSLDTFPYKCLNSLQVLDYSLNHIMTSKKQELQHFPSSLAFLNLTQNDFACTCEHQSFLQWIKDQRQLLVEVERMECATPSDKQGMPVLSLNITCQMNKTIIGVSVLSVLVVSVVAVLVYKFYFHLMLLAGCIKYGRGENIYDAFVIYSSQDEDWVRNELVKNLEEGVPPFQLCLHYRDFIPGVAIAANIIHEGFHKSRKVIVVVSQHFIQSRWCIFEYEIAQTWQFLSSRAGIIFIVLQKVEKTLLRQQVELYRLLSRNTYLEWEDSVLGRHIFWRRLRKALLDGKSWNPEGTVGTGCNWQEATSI

Toll-like receptor 7 = target: T2, Toll-like receptor 7 (Homo sapiens, UniProt Q9NYK1); assay: Antagonist activity at human TLR7 expressed in human whole blood assessed as inhibition of ssRNA stimulated IFNalpha level preincubated for 30 mins followed by stimulation and measured after 20 hrs by AlphaLISA method; type: tissue-based
T2 sequence (Q9NYK1 whole entry): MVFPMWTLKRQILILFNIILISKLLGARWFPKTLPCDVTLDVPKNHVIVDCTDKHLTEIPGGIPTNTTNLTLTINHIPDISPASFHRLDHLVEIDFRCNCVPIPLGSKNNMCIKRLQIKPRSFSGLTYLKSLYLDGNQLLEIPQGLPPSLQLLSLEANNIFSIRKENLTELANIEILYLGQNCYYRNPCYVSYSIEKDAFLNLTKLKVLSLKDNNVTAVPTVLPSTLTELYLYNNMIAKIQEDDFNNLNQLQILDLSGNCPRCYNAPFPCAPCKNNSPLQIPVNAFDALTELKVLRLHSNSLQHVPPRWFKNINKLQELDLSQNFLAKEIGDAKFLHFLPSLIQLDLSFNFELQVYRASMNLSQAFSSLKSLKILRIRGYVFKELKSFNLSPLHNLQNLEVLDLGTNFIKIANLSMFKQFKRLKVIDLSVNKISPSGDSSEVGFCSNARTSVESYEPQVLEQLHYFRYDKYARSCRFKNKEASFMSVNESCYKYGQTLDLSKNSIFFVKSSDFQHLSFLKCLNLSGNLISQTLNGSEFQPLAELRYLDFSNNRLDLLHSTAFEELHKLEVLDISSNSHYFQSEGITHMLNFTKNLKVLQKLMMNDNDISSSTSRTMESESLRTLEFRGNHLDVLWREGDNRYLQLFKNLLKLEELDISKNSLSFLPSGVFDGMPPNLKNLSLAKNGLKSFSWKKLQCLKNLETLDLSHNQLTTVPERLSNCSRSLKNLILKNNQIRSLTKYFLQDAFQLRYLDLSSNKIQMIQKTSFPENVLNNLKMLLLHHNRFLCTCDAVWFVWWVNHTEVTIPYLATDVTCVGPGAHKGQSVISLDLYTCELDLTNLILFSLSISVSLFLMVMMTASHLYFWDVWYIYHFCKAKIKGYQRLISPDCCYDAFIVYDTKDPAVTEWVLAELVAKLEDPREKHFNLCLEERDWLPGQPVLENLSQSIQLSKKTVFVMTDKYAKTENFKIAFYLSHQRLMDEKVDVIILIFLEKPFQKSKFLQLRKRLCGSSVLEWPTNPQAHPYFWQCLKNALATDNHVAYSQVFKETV

Cytochrome P450 3A4 = Cytochrome P450 3A4 (Homo sapiens, UniProt P08684); assay: Inhibition of CYP3A4 (unknown origin); type: ADME
Sequence of Cytochrome P450 3A4 (P08684 whole entry): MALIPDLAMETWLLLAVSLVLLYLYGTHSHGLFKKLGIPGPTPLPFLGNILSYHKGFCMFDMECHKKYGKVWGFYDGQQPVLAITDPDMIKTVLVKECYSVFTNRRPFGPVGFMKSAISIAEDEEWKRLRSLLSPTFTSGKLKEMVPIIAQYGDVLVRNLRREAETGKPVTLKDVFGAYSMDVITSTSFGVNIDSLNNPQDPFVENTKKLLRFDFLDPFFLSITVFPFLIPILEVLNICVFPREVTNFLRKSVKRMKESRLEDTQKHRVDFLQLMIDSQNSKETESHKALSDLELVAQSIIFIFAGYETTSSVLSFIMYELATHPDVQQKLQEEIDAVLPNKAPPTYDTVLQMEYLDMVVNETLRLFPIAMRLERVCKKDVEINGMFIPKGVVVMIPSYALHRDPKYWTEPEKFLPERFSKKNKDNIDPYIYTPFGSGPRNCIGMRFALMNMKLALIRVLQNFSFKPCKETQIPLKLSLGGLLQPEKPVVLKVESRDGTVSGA

[3] = Drug exposure in 129Sv mouse blood at 0.1 mg/kg, po by LC-MS/MS analysis; type: ADME, organism-based; details: in vivo, read-out: Drug uptake
Toll-like receptor 9 = target: T3, Toll-like receptor 9 (Homo sapiens, UniProt Q9NR96); assay: Antagonist activity at human TLR9 expressed in human whole blood assessed as inhibition of ODN2216 stimulated IFNalpha level preincubated for 30 mins followed by stimulation and measured after 20 hrs by AlphaLISA method; type: tissue-based
T3 sequence (Q9NR96 whole entry): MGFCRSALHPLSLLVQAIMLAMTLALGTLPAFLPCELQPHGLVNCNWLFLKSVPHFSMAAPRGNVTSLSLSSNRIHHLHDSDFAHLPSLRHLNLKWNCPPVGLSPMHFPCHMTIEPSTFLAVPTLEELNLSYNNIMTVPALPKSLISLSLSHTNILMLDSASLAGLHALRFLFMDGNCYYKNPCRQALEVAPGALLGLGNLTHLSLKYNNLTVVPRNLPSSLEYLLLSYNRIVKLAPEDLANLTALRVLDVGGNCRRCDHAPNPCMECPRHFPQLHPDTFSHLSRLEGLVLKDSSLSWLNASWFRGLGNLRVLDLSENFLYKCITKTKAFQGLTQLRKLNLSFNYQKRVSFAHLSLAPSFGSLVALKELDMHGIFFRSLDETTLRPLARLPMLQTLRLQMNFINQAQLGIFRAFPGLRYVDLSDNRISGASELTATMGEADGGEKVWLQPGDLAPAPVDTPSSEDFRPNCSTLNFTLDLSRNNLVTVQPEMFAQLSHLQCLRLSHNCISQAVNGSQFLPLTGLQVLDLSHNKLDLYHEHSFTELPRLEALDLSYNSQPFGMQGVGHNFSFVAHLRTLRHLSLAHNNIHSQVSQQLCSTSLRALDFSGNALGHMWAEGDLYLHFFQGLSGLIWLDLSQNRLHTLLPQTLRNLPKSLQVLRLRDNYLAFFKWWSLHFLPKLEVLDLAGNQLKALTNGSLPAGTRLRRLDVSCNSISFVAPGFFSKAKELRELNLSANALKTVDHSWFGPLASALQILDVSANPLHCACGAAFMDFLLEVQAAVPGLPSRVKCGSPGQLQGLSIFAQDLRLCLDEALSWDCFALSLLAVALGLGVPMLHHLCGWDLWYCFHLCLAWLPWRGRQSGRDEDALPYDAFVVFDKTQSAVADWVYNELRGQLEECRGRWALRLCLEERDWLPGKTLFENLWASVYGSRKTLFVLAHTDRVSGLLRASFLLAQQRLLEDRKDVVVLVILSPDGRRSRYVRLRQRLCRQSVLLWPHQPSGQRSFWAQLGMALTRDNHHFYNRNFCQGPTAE

Toll-like receptor 4 [4] = target: T1, Toll-like receptor 4; assay: Antagonist activity at human TLR4 expressed in human PBMC cells assessed as inhibition of LPS stimulated TNF level preincubated for 30 mins followed by stimulation and measured after 20 hrs by multiplate reader assay; type: cell-based
[5] = Volume of distribution at steady state in Balb/c mouse at 10 mg/kg, po or 1 mg/kg, iv administered as cassette dose measured upto 24 hrs by LC/MS/MS analysis; type: ADME, organism-based; details: in vivo, read-out: Vdss
[6] = Octanol/water partition coefficient, logD of compound at pH 7.4 measured after 4 hrs by shake flask method; type: physicochemical
[7] = Clearance in Balb/c mouse at 10 mg/kg, po or 1mg/kg, iv administered as cassette dose measured upto 24 hrs by LC/MS/MS analysis; type: ADME, organism-based; details: in vivo

Sequence of Voltage-gated inwardly rectifying potassium channel KCNH2 (Q12809 whole entry): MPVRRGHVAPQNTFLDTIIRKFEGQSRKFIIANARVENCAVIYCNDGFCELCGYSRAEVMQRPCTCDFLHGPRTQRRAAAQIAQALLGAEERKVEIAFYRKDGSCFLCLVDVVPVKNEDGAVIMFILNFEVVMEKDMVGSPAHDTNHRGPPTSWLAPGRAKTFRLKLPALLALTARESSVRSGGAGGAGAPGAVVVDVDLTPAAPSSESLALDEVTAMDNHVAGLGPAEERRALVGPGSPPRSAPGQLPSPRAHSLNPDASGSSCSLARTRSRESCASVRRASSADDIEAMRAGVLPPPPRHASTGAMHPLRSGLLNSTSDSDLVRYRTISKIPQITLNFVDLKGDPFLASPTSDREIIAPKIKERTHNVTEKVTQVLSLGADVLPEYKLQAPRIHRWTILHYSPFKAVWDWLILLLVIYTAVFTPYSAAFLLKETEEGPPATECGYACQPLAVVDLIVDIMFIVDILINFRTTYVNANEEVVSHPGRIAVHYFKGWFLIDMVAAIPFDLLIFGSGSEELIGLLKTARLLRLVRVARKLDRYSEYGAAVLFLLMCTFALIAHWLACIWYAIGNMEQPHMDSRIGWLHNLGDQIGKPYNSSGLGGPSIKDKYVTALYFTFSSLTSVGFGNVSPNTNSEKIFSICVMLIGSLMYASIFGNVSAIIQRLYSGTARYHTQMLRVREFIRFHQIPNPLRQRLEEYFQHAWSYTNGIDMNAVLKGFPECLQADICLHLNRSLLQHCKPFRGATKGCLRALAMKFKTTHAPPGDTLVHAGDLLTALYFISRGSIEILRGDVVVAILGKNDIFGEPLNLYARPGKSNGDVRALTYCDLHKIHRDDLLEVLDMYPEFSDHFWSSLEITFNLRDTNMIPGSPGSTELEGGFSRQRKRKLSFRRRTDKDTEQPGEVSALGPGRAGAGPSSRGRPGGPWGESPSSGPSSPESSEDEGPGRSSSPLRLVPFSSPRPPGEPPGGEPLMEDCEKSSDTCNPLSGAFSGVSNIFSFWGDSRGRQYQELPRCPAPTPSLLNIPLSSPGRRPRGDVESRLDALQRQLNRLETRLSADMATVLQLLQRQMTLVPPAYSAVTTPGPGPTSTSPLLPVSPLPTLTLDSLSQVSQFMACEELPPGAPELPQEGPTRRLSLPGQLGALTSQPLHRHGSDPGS

`Cc1cc(-c2cc3[nH]nc(N[C@@H]4CCNC[C@H]4F)c3cc2C2CC2)cc(C)n1` gave a pIC50 [1] of under 4.52, a pIC50 (Toll-like receptor 4 [2]) of under 5.00 and a pIC50 (Toll-like receptor 7) of 8.31. For the same compound, the pIC50 (Cytochrome P450 3A4) was under 4.60, the concentration [3] was 0.4 nM and the pIC50 (Toll-like receptor 9) was 6.41. It also gave a pIC50 (Toll-like receptor 4 [4]) of under 5.10, a Vd [5] of 8.4 L/kg and a logD at 4 h [6] of 2.7. For the same compound, the clearance [7] was 55 mL/min/kg.
